According to PubChem BioAssay AID1117322:
Calls of active or inactive are those of the source. The rule behind the calls is not given here.

System: RKO cells viability, CellTiter-Glo ATP luminescence
Assay: RKO cell viability reduction, dose response, CellTiter-Glo luminescence (AID 1117322)

**Q.** CCCCCCCCCCCCCC[N+](C)(C)C was tested. Which IC50 did it give?
**A.** 147 nM

**Q.** With OCCN1CCN(CC/C=C2/c3ccccc3Sc3ccc(C(F)(F)F)cc32)CC1 as the compound, how does the IC50 read?
**A.** 318 nM

**Q.** With CC(C)n1c(/C=C/[C@@H](O)C[C@@H](O)CC(=O)O)c(-c2ccc(F)cc2)c2ccccc21 as the compound, how does the IC50 read?
**A.** 19200 nM (inactive)

**Q.** For O=C1[O][Bi][O]c2ccccc21, which IC50 is on record?
**A.** > 20000 nM (inactive)

**Q.** CC(=O)[O][Hg][c]1ccccc1 was tested. Which IC50 did it give?
**A.** 1200 nM

**Q.** For O=Cc1ccc(O)c(O)c1O, which IC50 is on record?
**A.** 6230 nM (inactive)

**Q.** How did the IC50 turn out when O=C(O)C1(C(=O)O)CCC1.[NH2-].[NH2-].[Pt+2] was run?
**A.** > 20000 nM (inactive)
